Assay results published in publication PMC5025730.

Tests used:
[1] = CuAAC macrocyclisation (azide + terminal alkyne to 1,4-triazole); CuI 2 eq, DIPEA 3 eq; settings: THF, 1.0 mM, 66.0 °C
[2] = RuAAC macrocyclisation (azide + terminal alkyne to 1,5-triazole); [Cp*RuCl]4 0.1 eq (more for 30b, 31b); settings: the molecule shown is the open-chain precursor, THF, 1.0 mM, 66.0 °C
[3] = CuAAC macrocyclisation (azide + terminal alkyne to 1,4-triazole); CuI 2 eq, DIPEA 3 eq; yield includes preceding coupling step on crude precursor; settings: the molecule shown is the open-chain precursor, THF, 1.0 mM, 66.0 °C, 2 steps
[4] = RuAAC macrocyclisation (azide + terminal alkyne to 1,5-triazole); [Cp*RuCl]4 0.1 eq (0.2 eq for 28b); yield includes preceding coupling step on crude precursor; settings: the molecule shown is the open-chain precursor, THF, 1.0 mM, 66.0 °C, 2 steps

Q: For `O=C1C=CN2c3cccc(c3)C(=O)N(CC(=O)OCCC(F)(F)C(F)(F)C(F)(F)C(F)(F)C(F)(F)C(F)(F)C(F)(F)C(F)(F)F)Cc3cn(nn3)CCCCc3cccc(c3)C2C1` (stereo not shown) [19 -> 32a], which ring closure, isolated yield ([1]; from C#CCN(CC(=O)OCCC(F)(F)C(F)(F)C(F)(F)C(F)(F)C(F)(F)C(F)(F)C(F)(F)C(F)(F)F)C(=O)c1cccc(N2C=CC(=O)CC2c2cccc(CCCCN=[N+]=[N-])c2)c1, 18-membered ring, 20.0 h) is on record?
A: The ring closure, isolated yield was 33%.

Q: For `C#CCN(CC(=O)OCCC(F)(F)C(F)(F)C(F)(F)C(F)(F)C(F)(F)C(F)(F)C(F)(F)C(F)(F)F)C(=O)c1cccc(NC(=O)N[C@@H](CCCCN=[N+]=[N-])C(=O)N(C)C)c1` [6 -> 24b], which ring closure, isolated yield ([2]; 16-membered ring, 6.0 h) is on record?
A: The ring closure, isolated yield was 33%.

Q: Which ring closure, yield over several steps ([3]; 18-membered ring) does the source give for `C#CCN(CC(=O)OCCC(F)(F)C(F)(F)C(F)(F)C(F)(F)C(F)(F)C(F)(F)C(F)(F)C(F)(F)F)C(=O)c1cccc(N(C(=O)CCCCCCCN=[N+]=[N-])C(C(=O)NC2CCCCC2)c2ccccc2)c1` (stereo not shown) [17a -> 28a (over two steps from 2)] here?
A: The ring closure, yield over several steps was 18%.

Q: For `C#CCN(CC(=O)OCCC(F)(F)C(F)(F)C(F)(F)C(F)(F)C(F)(F)C(F)(F)C(F)(F)C(F)(F)F)C(=O)c1cccc(N(C(=O)CCCCCCCN=[N+]=[N-])C(C(=O)NC2CCCCC2)c2ccc(Br)cc2)c1` (stereo not shown) [17b -> 29b (over two steps from 2)], which ring closure, yield over several steps ([4]; 17-membered ring) is on record?
A: Its ring closure, yield over several steps is 78%.

Q: With `C#CCN(CC(=O)OCCC(F)(F)C(F)(F)C(F)(F)C(F)(F)C(F)(F)C(F)(F)C(F)(F)C(F)(F)F)C(=O)c1cccc(NC(=O)CCc2cccc(NC(=O)NCCc3ccc(NC(=O)N[C@@H](CCCCN=[N+]=[N-])C(=O)N(C)C)cc3)c2)c1` [14 -> 27a (over two steps from 13)] as the compound, how does the ring closure, yield over several steps ([3]; 33-membered ring, 24.0 h) read?
A: Its ring closure, yield over several steps is 31%.

Q: With `O=C(CN1Cc2cn(nn2)CCCCc2cccc(c2)[C@H]2[C@@H]3CC[C@H](CC3=O)N2c2cccc(c2)C1=O)OCCC(F)(F)C(F)(F)C(F)(F)C(F)(F)C(F)(F)C(F)(F)C(F)(F)C(F)(F)F` [20 -> 33 (exo azabicyclooctanone)] as the compound, how does the ring closure, isolated yield ([1]; from C#CCN(CC(=O)OCCC(F)(F)C(F)(F)C(F)(F)C(F)(F)C(F)(F)C(F)(F)C(F)(F)C(F)(F)F)C(=O)c1cccc(N2[C@@H]3CC[C@H](C(=O)C3)[C@@H]2c2cccc(CCCCN=[N+]=[N-])c2)c1, 18-membered ring) read?
A: Its ring closure, isolated yield is 65%.

Q: With `CO[C@H]1C(=O)N2c3cccc(c3)C(=O)N(CC(=O)OCCC(F)(F)C(F)(F)C(F)(F)C(F)(F)C(F)(F)C(F)(F)C(F)(F)C(F)(F)F)Cc3cn(nn3)CCCCc3cccc(c3)[C@@H]12` [18a -> 30a (cis beta-lactam)] as the compound, how does the ring closure, isolated yield ([1]; from C#CCN(CC(=O)OCCC(F)(F)C(F)(F)C(F)(F)C(F)(F)C(F)(F)C(F)(F)C(F)(F)C(F)(F)F)C(=O)c1cccc(N2C(=O)[C@H](OC)[C@@H]2c2cccc(CCCCN=[N+]=[N-])c2)c1, 18-membered ring, 24.0 h) read?
A: Its ring closure, isolated yield is 61%.

Q: Which ring closure, yield over several steps ([3]; 18-membered ring) does the source give for `C#CCN(CC(=O)OCCC(F)(F)C(F)(F)C(F)(F)C(F)(F)C(F)(F)C(F)(F)C(F)(F)C(F)(F)F)C(=O)c1ccc2c(c1)N[C@H](c1cccc(CCCCN=[N+]=[N-])c1)[C@H]1CCCO[C@@H]21` [21b -> 25b (from 21b/21c mixture, over two steps from 2)] here?
A: Its ring closure, yield over several steps is 4%.

Q: Which ring closure, isolated yield ([1]; from C#CCN(CC(=O)OCCC(F)(F)C(F)(F)C(F)(F)C(F)(F)C(F)(F)C(F)(F)C(F)(F)C(F)(F)F)C(=O)c1cccc(N2C(=O)[C@H](OC)[C@H]2c2cccc(CCCCN=[N+]=[N-])c2)c1, 18-membered ring, 24.0 h) does the source give for `CO[C@H]1C(=O)N2c3cccc(c3)C(=O)N(CC(=O)OCCC(F)(F)C(F)(F)C(F)(F)C(F)(F)C(F)(F)C(F)(F)C(F)(F)C(F)(F)F)Cc3cn(nn3)CCCCc3cccc(c3)[C@H]12` [18b -> 31a (trans beta-lactam)] here?
A: The ring closure, isolated yield was 91%.

Q: With `C#CCN(CC(=O)OCCC(F)(F)C(F)(F)C(F)(F)C(F)(F)C(F)(F)C(F)(F)C(F)(F)C(F)(F)F)C(=O)c1cccc(NC(C#N)c2cccc(CCCCN=[N+]=[N-])c2)c1` (stereo not shown) [22 -> 34 (over two steps from 2)] as the compound, how does the ring closure, yield over several steps ([3]; 18-membered ring) read?
A: The ring closure, yield over several steps was 71%.

Q: For `C#CCN(CC(=O)OCCC(F)(F)C(F)(F)C(F)(F)C(F)(F)C(F)(F)C(F)(F)C(F)(F)C(F)(F)F)C(=O)c1cccc(N(C(=O)CCCCCCCN=[N+]=[N-])C(C(=O)NC2CCCCC2)c2ccccc2)c1` (stereo not shown) [17a -> 28b (over two steps from 2)], which ring closure, yield over several steps ([4]; 17-membered ring, 48.0 h) is on record?
A: Its ring closure, yield over several steps is 47%.

Q: For `C#CCN(CC(=O)OCCC(F)(F)C(F)(F)C(F)(F)C(F)(F)C(F)(F)C(F)(F)C(F)(F)C(F)(F)F)C(=O)c1cccc(NC(=O)CCc2cccc(NC(=O)NCCc3ccc(N=[N+]=[N-])cc3)c2)c1` [13 -> 26b], which ring closure, isolated yield ([2]; 24-membered ring, 5.0 h) is on record?
A: The ring closure, isolated yield was 54%.

Q: With `O=C1CCc2cccc(c2)NC(=O)NCCc2ccc(cc2)-n2cc(nn2)CN(CC(=O)OCCC(F)(F)C(F)(F)C(F)(F)C(F)(F)C(F)(F)C(F)(F)C(F)(F)C(F)(F)F)C(=O)c2cccc(c2)N1` [13 -> 26a] as the compound, how does the ring closure, isolated yield ([1]; from C#CCN(CC(=O)OCCC(F)(F)C(F)(F)C(F)(F)C(F)(F)C(F)(F)C(F)(F)C(F)(F)C(F)(F)F)C(=O)c1cccc(NC(=O)CCc2cccc(NC(=O)NCCc3ccc(N=[N+]=[N-])cc3)c2)c1, 25-membered ring, 36.0 h) read?
A: Its ring closure, isolated yield is 60%.

Q: Which ring closure, isolated yield ([1]; from C#CCN(CC(=O)OCCC(F)(F)C(F)(F)C(F)(F)C(F)(F)C(F)(F)C(F)(F)C(F)(F)C(F)(F)F)C(=O)c1cccc(NC(=O)N[C@@H](CCCCN=[N+]=[N-])C(=O)N(C)C)c1, 17-membered ring) does the source give for `CN(C)C(=O)[C@@H]1CCCCn2cc(nn2)CN(CC(=O)OCCC(F)(F)C(F)(F)C(F)(F)C(F)(F)C(F)(F)C(F)(F)C(F)(F)C(F)(F)F)C(=O)c2cccc(c2)NC(=O)N1` [6 -> 24a] here?
A: Its ring closure, isolated yield is 70%.

Q: With `C#CCN(CC(=O)OCCC(F)(F)C(F)(F)C(F)(F)C(F)(F)C(F)(F)C(F)(F)C(F)(F)C(F)(F)F)C(=O)c1cccc2c1[C@@H]1OCCC[C@@H]1[C@H](c1cccc(CCCCN=[N+]=[N-])c1)N2` [21c -> 25c (from 21b/21c mixture, over two steps from 2)] as the compound, how does the ring closure, yield over several steps ([3]; 18-membered ring) read?
A: The ring closure, yield over several steps was 7%.

Q: With `O=C(CN1Cc2cn(nn2)CCCCc2cccc(c2)[C@H]2Nc3cc(ccc3[C@H]3OCCC[C@@H]23)C1=O)OCCC(F)(F)C(F)(F)C(F)(F)C(F)(F)C(F)(F)C(F)(F)C(F)(F)C(F)(F)F` [21a -> 25a (calculated 0.012/0.021 mmol)] as the compound, how does the ring closure, isolated yield ([1]; from C#CCN(CC(=O)OCCC(F)(F)C(F)(F)C(F)(F)C(F)(F)C(F)(F)C(F)(F)C(F)(F)C(F)(F)F)C(=O)c1ccc2c(c1)N[C@H](c1cccc(CCCCN=[N+]=[N-])c1)[C@@H]1CCCO[C@H]21, 18-membered ring) read?
A: The ring closure, isolated yield was 57%.

Q: For `C#CCN(CC(=O)OCCC(F)(F)C(F)(F)C(F)(F)C(F)(F)C(F)(F)C(F)(F)C(F)(F)C(F)(F)F)C(=O)c1cccc(NC(=O)CCc2cccc(NC(=O)NCCc3ccc(NC(=O)N[C@@H](CCCCN=[N+]=[N-])C(=O)N(C)C)cc3)c2)c1` [14 -> 27b (over two steps from 13)], which ring closure, yield over several steps ([4]; 32-membered ring, 24.0 h) is on record?
A: The ring closure, yield over several steps was 12%.

Q: Which ring closure, isolated yield ([2]; 17-membered ring, 48.0 h) does the source give for `C#CCN(CC(=O)OCCC(F)(F)C(F)(F)C(F)(F)C(F)(F)C(F)(F)C(F)(F)C(F)(F)C(F)(F)F)C(=O)c1cccc(N2C=CC(=O)CC2c2cccc(CCCCN=[N+]=[N-])c2)c1` (stereo not shown) [19 -> 32b] here?
A: Its ring closure, isolated yield is 19%.

Q: For `C#CCN(CC(=O)OCCC(F)(F)C(F)(F)C(F)(F)C(F)(F)C(F)(F)C(F)(F)C(F)(F)C(F)(F)F)C(=O)c1cccc(N2C(=O)[C@H](OC)[C@@H]2c2cccc(CCCCN=[N+]=[N-])c2)c1` [18a -> 30b (cis beta-lactam)], which ring closure, isolated yield ([2]; 17-membered ring, 48.0 h) is on record?
A: The ring closure, isolated yield was 33%.

Q: With `O=C(CN1Cc2cn(nn2)CCCCc2cccc(c2)[C@@H]2Nc3cccc(c3[C@H]3OCCC[C@H]32)C1=O)OCCC(F)(F)C(F)(F)C(F)(F)C(F)(F)C(F)(F)C(F)(F)C(F)(F)C(F)(F)F` [21d -> 25d (calculated 0.011/0.017 mmol)] as the compound, how does the ring closure, isolated yield ([1]; from C#CCN(CC(=O)OCCC(F)(F)C(F)(F)C(F)(F)C(F)(F)C(F)(F)C(F)(F)C(F)(F)C(F)(F)F)C(=O)c1cccc2c1[C@H]1OCCC[C@H]1[C@H](c1cccc(CCCCN=[N+]=[N-])c1)N2, 18-membered ring) read?
A: The ring closure, isolated yield was 65%.

Q: Which ring closure, isolated yield ([2]; 17-membered ring, 96.0 h) does the source give for `C#CCN(CC(=O)OCCC(F)(F)C(F)(F)C(F)(F)C(F)(F)C(F)(F)C(F)(F)C(F)(F)C(F)(F)F)C(=O)c1cccc(N2C(=O)[C@H](OC)[C@H]2c2cccc(CCCCN=[N+]=[N-])c2)c1` [18b -> 31b (trans beta-lactam)] here?
A: The ring closure, isolated yield was 7%.

Q: Which ring closure, yield over several steps ([3]; 18-membered ring) does the source give for `C#CCN(CC(=O)OCCC(F)(F)C(F)(F)C(F)(F)C(F)(F)C(F)(F)C(F)(F)C(F)(F)C(F)(F)F)C(=O)c1cccc(N(C(=O)CCCCCCCN=[N+]=[N-])C(C(=O)NC2CCCCC2)c2ccc(Br)cc2)c1` (stereo not shown) [17b -> 29a (over two steps from 2)] here?
A: Its ring closure, yield over several steps is 24%.
